From article PMC9028278, “2-Pyridine Carboxaldehyde for Semi-Automated Soft Spot Identification in Cyclic Peptides” (International Journal of Molecular Sciences, 2022)
Where a SMILES comes first, the peptide text is derived from it. Bridges are numbered along the chain shown (N, C = ends).

Test: Soft spot identification time course in dilute rat intestinal luminal contents with 2PCA derivatization
Assay type: in vitro ADME
Details: 10 µM peptide; for metabolic soft spot: most N-terminal residue of the ring-opened (singly hydrolyzed) peptide, assigned through the 2PCA tag: dilute rat intestinal luminal contents (fasted male SD rats, duodenum and jejunum), 0.02 mg/mL total protein in 5 mM pH 7.4 phosphate buffer, 37 °C, aliquots at 0, 2.5, 10, 20 min, quenched with acetonitrile containing 20 mM 2PCA, overnight at room temperature, LC-MS/MS (targeted MS/MS, AIF, background subtraction)
Protocol: This three-pronged approach was used to analyze two commercially available cyclic peptides, JB1 and somatostatin, in a typical soft spot identification workflow with automated sample preparation. Both JB1, a 12-mer cyclic peptide with the sequence CYAAPLKPAKSC, and somatostatin, a 14-mer cyclic peptide with the sequence AGCKNFFWKTFTSC (disulfide bound between Cys residues), were subjected to incubation in dilute rat intestinal luminal contents matrix on a liquid handling system. To facilitate unsupervised sample preparation, the enzymatic activity of the matrix was quenched with 1 volume of acetonitrile containing 20 mM 2PCA and incubated overnight. The following day, the samples were injected into the MS for analysis directly with the approach outlined in Figure 3. To increase the throughput and proportion of ‘hands-off’ time, the derivatization step was not quenched, and excess reagent or Schiff bases formed during the incubation were not scavenged by hydrazide (as was performed during the selectivity experiments on the tryptic HeLa lysate). While omitting the hydrazide scavenging step could introduce a decrease in sensitivity due to Schiff base formation on basic sites, the concentrations typically used in in vitro incubations ensure that minor decreases in sensitivity will not have deleterious effects on the workflow as a whole. In this case, the liquid handler utilized was unable to manipulate magnetic beads, but future experiments will incorporate a magnetic-bead-compatible liquid handler to incorporate the scavenging step. The method described has the potential to create more than one 2PCA adduct on a given peptide with basic sites, but the utilization of a targeted approach for the singly modified peptide as outlined here circumvents that complication and ensures MS/MS sampling of the peptide of interest.
HeLa S9 lysate tryptic digest was purchased from ThermoFisher (San Jose, CA, USA). […]
The flushed intestinal luminal contents from fasted rats were pooled and the concentration of protein was determined. […]

SMILES	metabolic soft spot: most N-terminal residue of the ring-opened (singly hydrolyzed) peptide, assigned through the 2PCA tag	secondary metabolite (subsequent hydrolysis step after ring opening) (dilute rat intestinal luminal contents, 0.02 mg/mL protein, pH 7.4, 37 °C, 10 min time point, background subtracted AIF XIC of m/z 107.0609)
CC(C)C[C@@H]1NC(=O)[C@@H]2CCCN2C(=O)[C@H](C)NC(=O)[C@H](C)NC(=O)[C@H](Cc2ccc(O)cc2)NC(=O)[C@@H](N)CSSC[C@@H](C(=O)O)NC(=O)[C@H](CO)NC(=O)[C@H](CCCCN)NC(=O)[C@H](C)NC(=O)[C@@H]2CCCN2C(=O)[C@H](CCCCN)NC1=O [JB1] (H-CYAAPLKPAKSC-OH; disulfide 1-12)	serine	clipping of the C-terminal Lysine residue
C[C@H](N)C(=O)NCC(=O)N[C@H]1CSSC[C@@H](C(=O)O)NC(=O)[C@H](CO)NC(=O)[C@H]([C@@H](C)O)NC(=O)[C@H](Cc2ccccc2)NC(=O)[C@H]([C@@H](C)O)NC(=O)[C@H](CCCCN)NC(=O)[C@H](Cc2c[nH]c3ccccc23)NC(=O)[C@H](Cc2ccccc2)NC(=O)[C@H](Cc2ccccc2)NC(=O)[C@H](CC(N)=O)NC(=O)[C@H](CCCCN)NC1=O [somatostatin]	first threonine (followed by phenylalanine)	
